Reference: US8609723B2 (Beijing Dingguochangsheng Biotech., Co., Ltd., priority 2008, dated 2013)

Assays:
[1] = test system: male ICR mice; assay: Tail suspension test in mice; assay type: in vivo; conditions: curcumin 10 mg/kg, Days 3 and 7 after administration, vs control group
Protocol: The tail suspension test was carried out for each of these groups on Days 3, 7 and 14 after administration, except that such experiment was not performed for the curcumin group on Day 14. Tails of the mice were taped on a special iron stand at 1 cm from the tips, whilst keeping the mice staying at a height of 50 cm from ground. Performance of the mice was observed within 6 min, and the accumulative immobile time within the last 4 min was recoded for each mouse.

[2] = test system: male ICR mice; assay: Forced swimming test of mice; assay type: in vivo; conditions: curcumin 10 mg/kg, Days 3 and 7 after administration
Protocol: The mice were forced to swim on Days 3, 7 and 14 after administration, except that such experiment was not performed for the curcumin group on Day 14.
Twenty four hours before the formal test, the mice were placed into a round glass container (height: 25 cm, diameter: 10 cm) filled with water (depth: 10 cm) with a temperature of 24±1° C., and forced to conduct swim training for 15 min. Twenty four hours later, the mice were placed into the round glass container filled with water (depth: 10 cm) again and forced to swim for 6 min. The accumulative immobile time within the last 4 min was observed and recorded for each mouse. The immobile time is intended to mean the period within which the mouse stops to struggle, floats in the water and keeps immobile, or only makes a few slight movements that are necessary to keep its head floating on the surface of water.

[3] = test system: 5-HT, NA, DA and metabolites thereof in hippocampus; assay: Detection of monoamine and metabolites thereof in brains of mice; assay type: in vivo; conditions: 10 mg/kg
Protocol: Hippocampus was collected immediately on ice, weighed, put into an Eppendorf tube and kept in refrigeratory at −80° C. To each 100 mg brain tissue, 200 μl ice-cooled Solution A (0.4 mol/L HCLO4) was added. The mixture was homogenized ultrasonically in a ice bath, kept in dark at 4° C. for 60 min, and centrifuged for 20 min (12,000 rpm, 4° C.). […] The mixture was vortexed thoroughly for 10 min, kept at 4° C. in dark for 60 min, and centrifuged again for 20 min (12,000 rpm, 4° C.). The supernatant was collected and measured for the content of monoamine. The contents of 5-HT, NA, DA, 5-HIAA and DOPAC in brain tissue were determined by High Effective Liquid Phase Electrochemistry. […] The contents of monoamine and metabolites thereof in brain tissue were shown as ng/g wet tissue weight.

[4] = background statement; cited from earlier work
[5] = test system: S-180 sarcoma cells; assay: Antitumor experiment of tumor S-180-bearing mice; assay type: in vivo; conditions: 5-FU administered daily, 7 days
From the text: During the experiment, the mice were inoculated with S-180 sarcoma cells (×10^7) in armpits. […] Seven days later, the mice were sacrificed by decollation. The tumors were removed, and the mice and the tumors were weighed separately.

[6] = test system: HCT116 cells; assay: Antitumor experiment of tumor HCT116-bearing mice; assay type: in vivo; conditions: 5-FU administered daily, 7 days
From the text: During the experiment, the mice were inoculated with HCT116 cells (×10^7) in armpits. […] Seven days later, the mice were sacrificed by decollation. The tumors were removed, and the mice and the tumors were weighed separately.

[7] = test system: S-180 cells; assay: Effect on apoptosis of tumor cells, cell cycle by flow cytometry; assay type: in vivo, mice; conditions: sarcoma cell cycle, S-180 tumor fluid, 7 days
From the text: During the experiment, the mice were inoculated with S-180 cells (×10^7) in armpits. Seven days later, the mice were sacrificed by decollation and the tumors were removed. Tumor fluid was collected from tumors, and used for determining cell cycle by flow cytometry after ethanol fixation.

[8] = test system: chronically stressed rats; assay: Measurement of body temperature of chronically stressed rats; assay type: in vivo; conditions: imipramine 10 mg/kg intraperitoneally daily for 21 days, chronic stress
From the text: (§1) The rats in the normal control group were raised normally under a condition without any stimulation except for weighing body weight, measuring body temperature, and subjected to sugar test. All of other groups were subjected to stimulations of same type and same strength. During the experiment, different types of stimulations were applied in an unpredictable manner, and the same type of stimulation was enhanced each time.
(§2) The stress protocol was shown as follows: horizontally shaking at a high speed for 45 min; nipping tails (1 cm from the tail root): 1 min; depriving of water for 24 h; forbidding moving for 1.5 h; fasting for 24 h; stimulating with ice water (water temperature: 10° C.) for 5 min; electric shocking (1 mA, time course: is, 1 shock/min) the bottoms of feet for 30 min; changing cages and raising separately for 24 h; forbidding moving for 2 h; nipping tails (1 cm from the root of tail) for 1 min; depriving of water for 24 h; horizontally shaking at a high speed for 1.5 h; fasting for 24 h; nipping tails (1 cm from the tail root): 1 min; electric shocking (1 mA, time course: 1 s, 1 shock/min) the bottoms of feet for 40 min; stimulating with ice water for 5 min; changing cages and raising separately for 24 h; horizontally shaking at a high speed for 60 min; electric shocking (1 mA, time course: 1 s, 1 shock/min) the bottoms of feet for 50 min; depriving of water for 24 h; forbidding moving for 2.5 h; and 24 h social isolation.
The front part of a digital thermometer was coated with liquid paraffin, and then inserted into the anus of a rat with a depth of approximately 1 cm. The temperature was read twice accordingly and averaged.

[9] = test system: chronically stressed rats; assay: Sugar water test of rats (chronic stress model); assay type: in vivo; conditions: imipramine 10 mg/kg, table title says (%), the values are: sugar water preference
From the text: as §1
as §2, with “The chronic stress course was 20 days in total, once per day, from 9:00 AM to 2:00 PM. The” for “The”
Before this experiment, animals were trained to adapt to drink sugar water in a to quite room. Two bottles were placed simultaneously into each cage. For the first 24 h, these two bottles were both filled with 1% sugar water; and for the next 24 h, one of them was filled with 1% sugar water and the other was filled with pure water. Then after 23-hour water deprivation, the animals were tested for basic sugar water/pure water consumption. One bottle of 1% sugar water and one bottle of pure water were provided to each rat simultaneously. One hour later, the two bottles were weighed, and the total liquid consumption, sugar water consumption, pure water consumption, and the sugar water preference=sugar water consumption/total liquid consumption×100% were calculated, respectively. The experiment was performed after continuous administration of curcumin for 14 days.

[10] = test system: chronically stressed rats; assay: Forced swimming test of rats (chronic stress model); assay type: in vivo; conditions: imipramine 10 mg/kg intraperitoneally daily for 21 days
From the text: as §1
as §2, with “The chronic stress course was 20 days in total, once per day, from 9:00 AM to 2:00 PM. The” for “The”
Please see FIG. 7. 24 hours before the formal test, rats were placed into a round glass container (height: 40 cm, diameter: 18 cm) filled with water (depth: 23 cm) with a temperature of 24±1° C., and forced to conduct swim training for 15 min. […] The accumulative immobile time within the last 4 min was observed and recorded for each rat. The immobile time is intended to mean the period within which the rat stops to struggle, floats in the water and keeps immobile, or only makes a few slight movements that are necessary to keep its head floating on the surface of water.

[11] = test system: serum corticosterone; assay: Determination of the content of serum corticosterone (chronic stress model); assay type: in vivo; conditions: stressed rats, imipramine 10 mg/kg daily, day after 21-day stress
From the text: as §1
as §2, with “The chronic stress course was 20 days in total, once per day, from 9:00 AM to 2:00 PM. The” for “The”
In this experiment, the content of serum corticosterone was measured by a competitive method, with its mechanism shown as follow: antigens in samples and enzyme-labeled antigens compete to bind antibodies in a solid phase. The more antigens exist in samples, the less enzyme-labeled antigens bind to the solid phase, thereby resulting in a fainter coloration.
On the next day after the end of the 21-day stress period, rats were sacrificed by decollation, and 5˜10 ml whole blood was collected. A portion of the collected whole blood was kept at room temperature for 20 min, followed by centrifugation at 1000 rpm for 10 min. Serum was then separated and stored at −80° C. The serum corticosterone detection kit was used for such detection.

[12] = first line of group (Day 3 presumed)
[13] = second line of group (Day 7 presumed)

COc1cc(/C=C/C(=O)CC(=O)/C=C/c2ccc(O)c(OC)c2)ccc1O [Curcumin, curcumin, reference compound]
reduction of tail suspension accumulative immobile time [1]: no significant difference
reduction of accumulative immobile time in the forced swimming test [2]: did not significantly reduce
Hippocampus 5-HIAA [3, 12]: 175.7 ± 13.8 ng/g
Hippocampus 5-HIAA/5-HT [3, 12]: 0.32 ± 0.03
Hippocampus 5-HT [3, 12]: 541.2 ± 31.8 ng/g
Hippocampus DOPAC [3, 12]: 12.4 ± 1.2 ng/g
Hippocampus Dopamine [3, 12]: 19.1 ± 3.6 ng/g
Hippocampus Noradrenaline [3, 12]: 245.6 ± 12.2 ng/g
Hippocampus 5-HIAA [3, 13]: 179.2 ± 14.9 ng/g
Hippocampus 5-HIAA/5-HT [3, 13]: 0.33 ± 0.03
Hippocampus 5-HT [3, 13]: 534.6 ± 28.9 ng/g
Hippocampus DOPAC [3, 13]: 11.9 ± 1.8 ng/g
Hippocampus Dopamine [3, 13]: 18.8 ± 5.4 ng/g
Hippocampus Noradrenaline [3, 13]: 246.6 ± 11.2 ng/g
half life [4]: approximately 1 hour

O=c1[nH]cc(F)c(=O)[nH]1 [Example 5-FU, 5-FU, reference compound]
inhibitory rate of tumors [5]: 55.8%
inhibitory rate of tumors [6]: 52.8%
APO % (apoptosis level of tumor cells) [7]: 29.1%
G1 % [7]: 35.1%
G2 % [7]: 11.7%
S % [7]: 53.2%

CN(C)CCCN1c2ccccc2CCc2ccccc21 [Imipramine, imipramine, reference compound]
Body temperature after stress [8]: 36.34 ± 0.083 °C
Sugar water volume after stress [9]: 67.5 ± 5%
Sugar water volume before stress [9]: 74.8 ± 7.8%
reduced the accumulative immobile time of the forced swimming test [10]: 40.5%
serum corticosterone [11]: 137.0 ± 15.3 nmol/L
